In experiment [1] the test system is ovariectomized (OVX) rats. The experiment in a line: OVX rat study: serum minerals, enzymes and hormones. The format is in vivo, Wistar rats. As to conditions: OVX rats; lycopene 45 mg/kg/day; ALN 2.0 μg/kg/day sc; P<0.001. Here is the method: (§1) A total of 264 Wistar female rats, ˜6 months old, were supplied by the Animal House at King Fahd Medical Research Center (KFMRC), KAU. Rats were housed in individual cages and maintained at 22° C. with a 12-h light/dark cycle. During the study period, rats were given standard rodent chow diet ad libitum (commercial rat cubes containing approximately 18% protein, 3% fat, 77% carbohydrate, and 2% of an inorganic-salt mixture with a vitamin supplement by weight, supplied by Grain Silos and Flour Mills Organization, Jeddah, Saudi Arabia) and water until the onset of intervention. Prior to surgery, rats were anesthetized with ketamine [(10% ketamine hydrochloride (80 mg/kg body weight), Cayman Chemical, Michigan, USA] and xylazine [(2% xylazine hydrochloride, 10 mg/kg body weight), Sigma-Aldrich Co., St. Louis, USA]. A single longitudinal skin incision was made on the dorsal midline at the level of the kidneys and both ovaries were ligated and removed to produce an ovariectomy in all OVX group animals. A SHAM-operated group, acting as a negative control for the effect of ovariectomy on bone parameters, underwent bilateral laparotomy, during which the ovaries were exposed but remained intact. […] The lycopene-supplemented groups were given lycopene (15, 30 and 45 mg/kg body weight per day) dissolved in corn oil by daily intra-gastric administration for the experimental period of 12 weeks. The SHAM, OVX and ALN control groups were given the same volume of corn oil without lycopene treatment. […] A 12-week randomized placebo-controlled study in order to examine the protective effects of lycopene supplementation on bone mass and fragility in OVX rats was concluded. Prior to surgery, body weight and bone mineral density (BMD) were obtained for all animals. Rats were randomized using a computer-generated randomization code into one of six groups: (1) sham-operated (SHAM; n=44); (2) ovariectomized control (OVX; n=44); (3) OVX lycopene-supplemented (15 mg/kg body weight per day) (n=44); (4) OVX lycopene-supplemented (30 mg/kg body weight per day) (n=44); (5) OVX lycopene-supplemented (45 mg/kg body weight per day) (n=44) and (6) OVX alendronate-treated (ALN) [2.0 μg/kg body weight per day subcutaneously (sc)] (n=44). Alendronate is an anti-resorptive agent for the treatment of osteoporosis and was used as a positive therapy control. […] All OVX groups were pair-fed with the SHAM group throughout the study to avoid the possible effects of ovariectomy-induced over-consumption and subsequent excessive weight gain. Treatment started 1 week after the surgery: this period of rest allowed the rats to recover from the stress associated with the surgery. […] Peripheral Quantitative CT (pQCT) scans were made of the proximal tibia metaphysis and the diaphysis. […]

The test system of experiment [2] is ovariectomized (OVX) rats. The experiment in a line: OVX rat study: biochemical bone turnover markers. The conditions noted are these: ALN 2.0 μg/kg/day sc. The format is in vivo, Wistar rats. Here is the method:
as §1

Experiment [3] concerns ovariectomized (OVX) rats. As to the kind of experiment: OVX rat study: in vivo DXA densitometry of lumbar spine and humerus. The conditions noted are these: 12 weeks, versus OVX control. Details: species or system Wistar rats. Here is the method: (§2) A total of 264 Wistar female rats, ˜6 months old, were supplied by the Animal House at King Fahd Medical Research Center (KFMRC), KAU. Rats were housed in individual cages and maintained at 22° C. with a 12-h light/dark cycle. During the study period, rats were given standard rodent chow diet ad libitum (commercial rat cubes containing approximately 18% protein, 3% fat, 77% carbohydrate, and 2% of an inorganic-salt mixture with a vitamin supplement by weight, supplied by Grain Silos and Flour Mills Organization, Jeddah, Saudi Arabia) and water until the onset of intervention. Prior to surgery, rats were anesthetized with ketamine [(10% ketamine hydrochloride (80 mg/kg body weight), Cayman Chemical, Michigan, USA] and xylazine [(2% xylazine hydrochloride, 10 mg/kg body weight), Sigma-Aldrich Co., St. Louis, USA]. A single longitudinal skin incision was made on the dorsal midline at the level of the kidneys and both ovaries were ligated and removed to produce an ovariectomy in all OVX group animals. A SHAM-operated group, acting as a negative control for the effect of ovariectomy on bone parameters, underwent bilateral laparotomy, during which the ovaries were exposed but remained intact. […] Peripheral Quantitative CT (pQCT) scans were made of the proximal tibia metaphysis and the diaphysis. […]

In experiment [4] the test system is ovariectomized (OVX) rats. As to the kind of experiment: OVX rat study: in vivo pQCT densitometry of tibia metaphysis. The conditions noted are these: 12 weeks, versus OVX control, P<0.001. Set-up: species or system Wistar rats. Here is the method: as §2
In experiment [5] the test system is ovariectomized (OVX) rats. The experiment in a line: OVX rat study: ex vivo pQCT and biomechanical testing of lumbar spine and femur. The conditions noted are these: 12 weeks. The format is in vivo, Wistar rats. Here is the method:
as §1, with “surgery. In addition, after surgery, rats were administered Diclofenac sodium injection (20 mg/Kg body weight) to reduce the pain associated with the surgery. Rats were weighed and examined daily. Blood and urine samples were collected at baseline, during, and at the end of treatment for measurement of various BTMs and other analytes. In vivo dual energy x-ray absorptiometry (DXA) measurements were made for the bone mineral content (BMC) and BMD of the whole body, lumbar spine (L1-L4), and the right humerus, together with body composition at 12 weeks of treatment.” for “surgery.”

The subject of experiment [6] is ovariectomized (OVX) rats. As to the kind of experiment: OVX rat study: ex vivo μCT analysis of tibial metaphysis and femur diaphysis. Format: in vivo, Wistar rats. Here is the method:
(§3) A total of 264 Wistar female rats, ˜6 months old, were supplied by the Animal House at King Fahd Medical Research Center (KFMRC), KAU. Rats were housed in individual cages and maintained at 22° C. with a 12-h light/dark cycle. During the study period, rats were given standard rodent chow diet ad libitum (commercial rat cubes containing approximately 18% protein, 3% fat, 77% carbohydrate, and 2% of an inorganic-salt mixture with a vitamin supplement by weight, supplied by Grain Silos and Flour Mills Organization, Jeddah, Saudi Arabia) and water until the onset of intervention. Prior to surgery, rats were anesthetized with ketamine [(10% ketamine hydrochloride (80 mg/kg body weight), Cayman Chemical, Michigan, USA] and xylazine [(2% xylazine hydrochloride, 10 mg/kg body weight), Sigma-Aldrich Co., St. Louis, USA]. A single longitudinal skin incision was made on the dorsal midline at the level of the kidneys and both ovaries were ligated and removed to produce an ovariectomy in all OVX group animals. A SHAM-operated group, acting as a negative control for the effect of ovariectomy on bone parameters, underwent bilateral laparotomy, during which the ovaries were exposed but remained intact. […] The lycopene-supplemented groups were given lycopene (15, 30 and 45 mg/kg body weight per day) dissolved in corn oil by daily intra-gastric administration for the experimental period of 12 weeks. The SHAM, OVX and ALN control groups were given the same volume of corn oil without lycopene treatment. […] A 12-week randomized placebo-controlled study in order to examine the protective effects of lycopene supplementation on bone mass and fragility in OVX rats was concluded. Prior to surgery, body weight and bone mineral density (BMD) were obtained for all animals. Rats were randomized using a computer-generated randomization code into one of six groups: (1) sham-operated (SHAM; n=44); (2) ovariectomized control (OVX; n=44); (3) OVX lycopene-supplemented (15 mg/kg body weight per day) (n=44); (4) OVX lycopene-supplemented (30 mg/kg body weight per day) (n=44); (5) OVX lycopene-supplemented (45 mg/kg body weight per day) (n=44) and (6) OVX alendronate-treated (ALN) [2.0 μg/kg body weight per day subcutaneously (sc)] (n=44). Alendronate is an anti-resorptive agent for the treatment of osteoporosis and was used as a positive therapy control. […] All OVX groups were pair-fed with the SHAM group throughout the study to avoid the possible effects of ovariectomy-induced over-consumption and subsequent excessive weight gain. Treatment started 1 week after the surgery: this period of rest allowed the rats to recover from the stress associated with the surgery. In addition, after surgery, rats were administered Diclofenac sodium injection (20 mg/Kg body weight) to reduce the pain associated with the surgery. Rats were weighed and examined daily. Blood and urine samples were collected at baseline, during, and at the end of treatment for measurement of various BTMs and other analytes. In vivo dual energy x-ray absorptiometry (DXA) measurements were made for the bone mineral content (BMC) and BMD of the whole body, lumbar spine (L1-L4), and the right humerus, together with body composition at 12 weeks of treatment. One day following the post-test DXA assessments (at 12 weeks, 16 rats in each group), animals were euthanized by decapitation and right and left femurs were extracted for further biomechanical and histomorphometric analyses. Blood and urine samples were collected from all experimental groups to measure biochemical analytes and BTMs at baseline and 4, 8, and 12 weeks of treatment. Peripheral Quantitative CT (pQCT) scans were made of the proximal tibia metaphysis and the diaphysis. In vivo micro-computed tomographic (μCT) scans of the proximal tibia were obtained during the treatment period to monitor changes in bone mass and microarchitecture. […]

Experiment [7] deals with ovariectomized (OVX) rats. The experiment in a line: OVX rat study: dynamic bone histomorphometry of tibial metaphysis and diaphysis. The format is in vivo, Wistar rats. As to conditions: ALN group, tibial diaphysis, for the most part. Here is the method: as §3
Where [8] appears, read: 12 weeks, lycopene, ALN 2.0 μg/kg/day, P<0.001.

SMILES strings stand for the structures.

Consider `NCCCC(O)(P(=O)(O)O)P(=O)(O)O` [ALN, alendronate, reference compound], for which the “serum PTH values versus other groups” value in experiment [1] was “significantly higher”. Besides, in experiment [2] (P<0.001), the “OVX-induced increases in s-CTX and u-DPD levels” value is “prevented”. The “s-OC and s-PINP levels compared with OVX control” value in experiment [2] (week 12, P<0.001) was “significantly decreased”. In experiment [3], the “OVX-induced bone loss (BMC and BMD, lumbar spine and humerus, DXA)” value was “prevented”. The “OVX-induced bone loss (total and trabecular BMD, proximal tibia, pQCT)” value in experiment [4] is “prevented”. The “OVX-induced decrease in cortical thickness” value in experiment [5] (lycopene particularly 45 mg/kg/day, alendronate 2.0 μg/kg/day) is “prevented”. Also, the “lumbar spine biomechanical / bone strength parameters” value in experiment [5] (lycopene particularly 30 and 45 mg/kg/day, ALN 2.0 μg/kg/day, P<0.05) is listed as “significantly increased”. Further, in experiment [6] (setting [8]), the “decrease in Tb.Sp, tibia metaphysis (μCT), compared with OVX group” value turned out to be 37.3%; the “increase in BV/TV, tibia metaphysis (μCT), compared with OVX group” value is reported as 128.9%; the “increase in Tb.N, tibia metaphysis (μCT), compared with OVX group” value was 25.8%. The “relative bone volume (BV/TV) of the femur diaphysis (μCT)” value in experiment [6] (OVX rats, 12 weeks) is reported as “nor lycopene or ALN treatment had significant effects”. The “femoral cortical values for Ct.Th and Ct.Po (μCT)” value in experiment [6] (lycopene 30 and 45 mg/kg/day, ALN, versus SHAM and OVX groups) is recorded as “improved”. Also, in experiment [7], the “OVX-induced effects on cortical bone indices” value is reported as “also prevented”.

The values above are taken from patent US9956181B2, “Composition of nanoformulated lycopene and method of using the composition” (priority 2015, dated 2018).
